Reference: ChEMBL document CHEMBL4477261, “Design, synthesis and evaluation of the multidrug resistance-reversing activity of pyridine acid esters of podophyllotoxin in human leukemia cells” (Bioorg Med Chem Lett, 2016)
Activity calls are given as the source filed them. The rule behind the calls is not given here.

Tests used:
K562/Adr [1] = experiment: Antiproliferative activity against human K562/ADR cells after 72 hrs by CCK8 assay; type: functional, cell-based
K562 [2] = experiment: Antiproliferative activity against human K562 cells after 72 hrs by CCK8 assay; type: functional, cell-based; settings: K562, 72 h
K562 [3] = experiment: Resistance factor, ratio of IC50 for human K562/ADR cells to IC50 for human K562 cells; type: functional
K562/Adr [4] = experiment: Cell cycle arrest in human K562/ADR cells assessed as accumulation in S phase at 0.05 uM after 48 hrs by propidium iodide staining based flow cytometry; type: functional
K562/Adr [5] = experiment: Induction of apoptosis in human K562/ADR cells assessed as live cells at 0.05 uM after 48 hrs by Annexin V-APC/7-AAD staining based flow cytometry (reference value: 91.65%); type: functional
K562/Adr [6] = experiment: Induction of apoptosis in human K562/ADR cells assessed as early apoptotic cells at 0.05 uM after 48 hrs by Annexin V-APC/7-AAD staining based flow cytometry (reference value: 1.99%); type: functional
K562/Adr [7] = experiment: Induction of apoptosis in human K562/ADR cells assessed as late apoptotic cells at 0.05 uM after 48 hrs by Annexin V-APC/7-AAD staining based flow cytometry (reference value: 3.89%); type: functional
K562/Adr [8] = experiment: Induction of apoptosis in human K562/ADR cells assessed as necrotic cells at 0.05 uM after 48 hrs by Annexin V-APC/7-AAD staining based flow cytometry (reference value: 2.47%); type: functional
K562/Adr [9] = experiment: Induction of apoptosis in human K562/ADR cells assessed as nuclear fragmentation at 0.05 uM after 48 hrs by Hoechst 33342 staining based fluorescent microscopic analysis; type: functional, cell-based
K562/Adr [10] = experiment: Induction of apoptosis in human K562/ADR cells assessed as chromatin condensation at 0.05 uM after 48 hrs by Hoechst 33342 staining based fluorescent microscopic analysis; type: functional, cell-based
[11] = target: T1, Mitogen-activated protein kinase; ERK1/ERK2 (Homo sapiens) (UniProt P27361+P28482); experiment: Induction of ERK1/2 phosphorylation in human K562/ADR cells at 0.05 uM after 48 hrs by Western blot analysis relative to control; type: cell-based
K562/Adr [12] = experiment: Effect on total ERK1/2 protein expression level in human K562/ADR cells at 0.05 uM after 48 hrs by Western blot analysis relative to control; type: ADME, cell-based
[13] = target: T1, Mitogen-activated protein kinase; ERK1/ERK2 (Homo sapiens); experiment: Activation of ERK1/2 signalling in human K562/ADR cells assessed as suppression of CDK1 protein expression at 0.05 uM after 48 hrs by Western blot analysis relative to control; type: cell-based
[14] = target: T1, Mitogen-activated protein kinase; ERK1/ERK2 (Homo sapiens); experiment: Activation of ERK1/2 signalling in human K562/ADR cells assessed as suppression of CyclinB1 protein expression at 0.05 uM after 48 hrs by Western blot analysis relative to control; type: cell-based
[15] = target: T1, Mitogen-activated protein kinase; ERK1/ERK2 (Homo sapiens); experiment: Activation of ERK1/2 signalling in human K562/ADR cells assessed as increase in cleaved caspase-3 expression at 0.05 uM after 48 hrs by Western blot analysis relative to control; type: cell-based
[16] = target: T1, Mitogen-activated protein kinase; ERK1/ERK2 (Homo sapiens); experiment: Activation of ERK1/2 signalling in human K562/ADR cells assessed as increase in cleaved caspase-8 expression at 0.05 uM after 48 hrs by Western blot analysis relative to control; type: cell-based
[17] = target: T1, Mitogen-activated protein kinase; ERK1/ERK2 (Homo sapiens); experiment: Activation of ERK1/2 signalling in human K562/ADR cells assessed as increase in cleaved caspase-9 expression at 0.05 uM after 48 hrs by Western blot analysis relative to control; type: cell-based
[18] = target: T1, Mitogen-activated protein kinase; ERK1/ERK2 (Homo sapiens); experiment: Activation of ERK1/2 signalling in human K562/ADR cells assessed as suppression of P-gp expression at 0.05 uM after 48 hrs by Western blot analysis relative to control; type: cell-based

T1 sequence (P27361 whole entry, looked up): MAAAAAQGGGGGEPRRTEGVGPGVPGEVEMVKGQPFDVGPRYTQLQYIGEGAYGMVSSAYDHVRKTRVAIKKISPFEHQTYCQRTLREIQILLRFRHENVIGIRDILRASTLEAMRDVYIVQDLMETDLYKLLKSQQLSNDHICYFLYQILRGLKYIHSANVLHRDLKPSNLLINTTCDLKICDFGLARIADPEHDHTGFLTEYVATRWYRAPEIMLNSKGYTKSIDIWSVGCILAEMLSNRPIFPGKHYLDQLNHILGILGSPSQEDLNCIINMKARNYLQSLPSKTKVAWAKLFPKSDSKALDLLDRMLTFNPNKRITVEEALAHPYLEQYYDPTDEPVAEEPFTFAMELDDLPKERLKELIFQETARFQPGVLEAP
T1 sequence (P28482 whole entry, looked up): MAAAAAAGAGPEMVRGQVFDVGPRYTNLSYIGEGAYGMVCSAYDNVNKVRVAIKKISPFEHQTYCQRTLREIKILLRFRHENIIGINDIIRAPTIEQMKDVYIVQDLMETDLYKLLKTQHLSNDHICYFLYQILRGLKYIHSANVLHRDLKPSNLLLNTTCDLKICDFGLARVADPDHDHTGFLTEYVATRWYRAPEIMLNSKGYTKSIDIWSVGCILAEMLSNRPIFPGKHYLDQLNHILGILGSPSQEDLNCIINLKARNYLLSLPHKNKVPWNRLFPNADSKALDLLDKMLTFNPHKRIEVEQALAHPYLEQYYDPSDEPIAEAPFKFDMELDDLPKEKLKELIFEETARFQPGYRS

COc1cc([C@@H]2c3cc4c(cc3[C@H](OC(=O)c3ccc(Br)nc3)[C@H]3COC(=O)[C@H]23)OCO4)cc(OC)c1OC
IC50 (K562/Adr [1]): 345 nM
IC50 (K562 [2]): 256 nM
Ratio IC50 (K562 [3]): 1.347

COc1cc([C@@H]2c3cc4c(cc3[C@H](OC(=O)c3cc(Cl)ccn3)[C@H]3COC(=O)[C@H]23)OCO4)cc(OC)c1OC
IC50 (K562/Adr [1]): 52 nM
IC50 (K562 [2]): 16 nM
Ratio IC50 (K562 [3]): 3.25

COc1cc([C@@H]2c3cc4c(cc3[C@H](O)[C@H]3COC(=O)[C@H]23)OCO4)cc(OC)c1OC [PODOFILOX]
IC50 (K562/Adr [1]): 25 nM
Ratio IC50 (K562 [3]): 4.166
Activity (K562/Adr [4]): Active
Activity (K562/Adr [5]): 40.83%
Activity (K562/Adr [6]): 7.94%
Activity (K562/Adr [7]): 43.5%
Activity (K562/Adr [8]): 7.73%
Activity (K562/Adr [9]): Active
Activity (K562/Adr [10]): Active
fold change (FC) [11]: 0.63
fold change (FC) (K562/Adr [12]): 0.88
fold change (FC) [13]: 0.4
fold change (FC) [14]: 0.02
fold change (FC) [15]: 0.76
fold change (FC) [16]: 0.7
fold change (FC) [17]: 0.74
fold change (FC) [18]: 0.03
